According to US20260285850A1, “SUBSTITUTED OXAZOLIDINONES AND IMIDAZOLINONES AS HERBICIDES” (FMC CORPORATION, priority 2023, published 2026):

Legend:
Format in all cases: in vivo
[1] = system: barnyardgrass (Echinochloa crus-galli); assay: Test A preemergence soil spray, visual injury rating 0-100; settings: 10 days
How it was run: (§1)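 Directed preemergence spray onto seeded soil or postemergence spray onto 2-10 cm plants (loam plus sand); compound carried in surfactant-containing non-phytotoxic solvent. Injury rated by eye after 10 d greenhouse growth; 0 = no effect, 100 = complete control.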

[2] = system: green foxtail (Setaria viridis); assay: as above; settings: 10 days
How it was run: as §1

[3] = system: ragweed (common ragweed, Ambrosia artemisiifolia); assay: as above; settings: 10 days
How it was run: as §1

[4] = system: blackgrass (Alopecurus myosuroides); assay: as above; settings: 10 days
How it was run: as §1

[5] = system: wheat (Triticum aestivum); assay: as above; settings: 10 days
How it was run: as §1

soybean (Glycine max) [6] = assay: as above; settings: 10 days
How it was run: as §1

kochia (Bassia scoparia) [7] = assay: as above; settings: 10 days
How it was run: as §1

corn (Zea mays) [8] = assay: as above; settings: 10 days
How it was run: as §1

[9] = system: ryegrass, Italian (italian ryegrass, Lolium multiflorum); assay: as above; settings: 10 days
How it was run: as §1

[10] = system: oat, wild (wild oat, Avena fatua); assay: as above; settings: 10 days
How it was run: as §1

[11] = system: palmer (palmer amaranth, palmer pigweed, Amaranthus palmeri); assay: as above; settings: 10 days
How it was run: as §1

[12] = system: barnyardgrass (Echinochloa crus-galli); assay: Test A postemergence application, visual injury rating 0-100; settings: for Barnyardgrass plant response rating (0 to 100 scale): Postemergence
How it was run: as §1

[13] = system: green foxtail (Setaria viridis); assay: as above; settings: for Foxtail, Green plant response rating (0 to 100 scale): Postemergence
How it was run: as §1

[14] = system: ragweed (common ragweed, Ambrosia artemisiifolia); assay: as above; settings: for Ragweed plant response rating (0 to 100 scale): Postemergence
How it was run: as §1

[15] = system: blackgrass (Alopecurus myosuroides); assay: as above; settings: for Blackgrass plant response rating (0 to 100 scale): Postemergence
How it was run: as §1

[16] = system: galium (catchweed bedstraw, Galium aparine); assay: as above; settings: Postemergence
How it was run: as §1

[17] = system: wheat (Triticum aestivum); assay: as above; settings: for Wheat plant response rating (0 to 100 scale): Postemergence
How it was run: as §1

soybean (Glycine max) [18] = assay: as above; settings: for Soybean plant response rating (0 to 100 scale): Postemergence
How it was run: as §1

kochia (Bassia scoparia) [19] = assay: as above; settings: for Kochia plant response rating (0 to 100 scale): Postemergence
How it was run: as §1

[20] = system: horseweed (Erigeron canadensis); assay: as above; settings: for Horseweed plant response rating (0 to 100 scale): Postemergence
How it was run: as §1

corn (Zea mays) [21] = assay: as above; settings: for Corn plant response rating (0 to 100 scale): Postemergence
How it was run: as §1

[22] = system: ryegrass, Italian (italian ryegrass, Lolium multiflorum); assay: as above; settings: for Ryegrass, Italian plant response rating (0 to 100 scale): Postemergence
How it was run: as §1

[23] = system: oat, wild (wild oat, Avena fatua); assay: as above; settings: for Oat, Wild plant response rating (0 to 100 scale): Postemergence
How it was run: as §1

[24] = system: palmer (palmer amaranth, palmer pigweed, Amaranthus palmeri); assay: as above; settings: for Amaranth, Palmer / Pigweed, Palmer plant response rating (0 to 100 scale): 0 is no effect, 100 is complete control
How it was run: as §1

[25] = system: sedge, umbrella (small-flower umbrella sedge, Cyperus difformis); assay: Test B flooded paddy test, visual plant response rating 0-100; settings: 250 g ai/ha, Flood, applied to paddy water, evaluated after 13 days
How it was run: (§2)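 Plants were grown to the 2-leaf stage, then pots were flooded to 3 cm above the soil and compound was applied directly to the paddy water, with that depth kept throughout.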

[26] = system: barnyardgrass (Echinochloa crusgalli); assay: as above; settings: 250 g ai/ha, Flood, applied to paddy water, evaluated after 13 days
How it was run: as §2

[27] = system: ducksalad (Heteranthera limosa); assay: as above; settings: 250 g ai/ha, Flood, applied to paddy water, evaluated after 13 days
How it was run: as §2

rice (Oryza sativa) = assay: as above; settings: 250 g ai/ha, Flood, applied to paddy water, evaluated after 13 days
How it was run: as §2

[28] = 62 g ai/ha, 0 = no effect, 100 = complete control
[29] = 62 g ai/ha, postemergence, 10 days, 0 = no effect, 100 = complete control
[30] = 16 g ai/ha, greenhouse 10 days, 0 no effect, 100 complete control
[31] = 125 g ai/ha, 0 = no effect, 100 = complete control
[32] = 500 g ai/ha, 0 = no effect, 100 = complete control
[33] = 125 g ai/ha, 10 days, 0 is no effect, 100 is complete control
[34] = 500 g ai/ha, 10 days, 0 is no effect, 100 is complete control

CC1(C(=O)NC2CC=C(C(=O)OCC(F)F)C2)CN(c2cc(Cl)cc(Cl)c2)C(=O)O1 (stereo not shown) [Compound 154]
Barnyardgrass plant response rating ([1]; 16 g ai/ha, 0 to 100 scale): 30
Barnyardgrass plant response rating (0-100) [1, 28]: 90
Foxtail, Green plant response rating ([2]; 16 g ai/ha, 0 to 100 scale): 40
Foxtail, Green plant response rating (0-100) [2, 28]: 90
Ragweed plant response rating ([3]; 16 g ai/ha, 0 to 100 scale): 0
Ragweed plant response rating (0-100) [3, 28]: 50
Blackgrass plant response rating ([4]; 16 g ai/ha, 0 to 100 scale): 0
Blackgrass plant response rating (0-100) [4, 28]: 0
Wheat plant response rating ([5]; 16 g ai/ha, 0 to 100 scale): 10
Wheat plant response rating (0-100) [5, 28]: 60
Soybean plant response rating (soybean (Glycine max) [6]; 16 g ai/ha, 0 to 100 scale): 0
Soybean plant response rating (0-100) (soybean (Glycine max) [6]; [28]): 50
Kochia plant response rating (kochia (Bassia scoparia) [7]; 16 g ai/ha, 0 to 100 scale): 20
Kochia plant response rating (0-100) (kochia (Bassia scoparia) [7]; [28]): 90
Corn plant response rating (corn (Zea mays) [8]; 16 g ai/ha, 0 to 100 scale): 20
Corn plant response rating (0-100) (corn (Zea mays) [8]; [28]): 30
Ryegrass, Italian plant response rating ([9]; 16 g ai/ha, 0 to 100 scale): 30
Ryegrass, Italian plant response rating (0-100) [9, 28]: 80
Oat, Wild plant response rating ([10]; 16 g ai/ha, 0 to 100 scale): 0
Oat, Wild plant response rating (0-100) [10, 28]: 20
Pigweed, Palmer plant response rating ([11]; 16 g ai/ha, 0 to 100 scale): 60
Pigweed, Palmer plant response rating (0-100) [11, 28]: 100
Barnyardgrass plant response rating (0-100) [12, 29]: 100
Barnyardgrass plant response rating (0 to 100 scale) [12, 30]: 100
Foxtail, Green plant response rating (0-100) [13, 29]: 90
Foxtail, Green plant response rating (0 to 100 scale) [13, 30]: 80
Ragweed plant response rating (0-100) [14, 29]: 90
Ragweed plant response rating (0 to 100 scale) [14, 30]: 40
Blackgrass plant response rating (0-100) [15, 29]: 0
Blackgrass plant response rating (0 to 100 scale) [15, 30]: 0
Galium plant response rating (0 to 100 scale) [16, 30]: 50
Wheat plant response rating (0-100) [17, 29]: 90
Wheat plant response rating (0 to 100 scale) [17, 30]: 70
Soybean plant response rating (0-100) (soybean (Glycine max) [18]; [29]): 60
Soybean plant response rating (0 to 100 scale) (soybean (Glycine max) [18]; [30]): 60
Kochia plant response rating (0-100) (kochia (Bassia scoparia) [19]; [29]): 90
Kochia plant response rating (0 to 100 scale) (kochia (Bassia scoparia) [19]; [30]): 90
Horseweed plant response rating (0-100) [20, 29]: 70
Horseweed plant response rating (0 to 100 scale) [20, 30]: 70
Corn plant response rating (0-100) (corn (Zea mays) [21]; [29]): 100
Corn plant response rating (0 to 100 scale) (corn (Zea mays) [21]; [30]): 100
Ryegrass, Italian plant response rating (0-100) [22, 29]: 80
Ryegrass, Italian plant response rating (0 to 100 scale) [22, 30]: 60
Oat, Wild plant response rating (0-100) [23, 29]: 90
Oat, Wild plant response rating (0 to 100 scale) [23, 30]: 20
Pigweed, Palmer plant response rating (0-100) [24, 29]: 90
Pigweed, Palmer plant response rating (0 to 100 scale) ([24]; Postemergence, 16 g ai/ha, greenhouse 10 days, 0 no effect, 100 complete control): 90
Plant response rating, Sedge, Umbrella (0 to 100 scale, 0 is no effect and 100 is complete control) [25]: 95
Plant response rating, Barnyardgrass (0 to 100 scale, 0 is no effect and 100 is complete control) [26]: 98
Plant response rating, Ducksalad (0 to 100 scale, 0 is no effect and 100 is complete control) [27]: 70
Plant response rating, Rice (0 to 100 scale, 0 is no effect and 100 is complete control) (rice (Oryza sativa)): 95

CNC(=O)C1C=CC(NC(=O)C2(C)CN(c3cc(Cl)cc(Cl)c3)C(=O)O2)C1 (stereo not shown) [Compound 47]
Barnyardgrass plant response rating (0 to 100 scale) [1, 31]: 40
Barnyardgrass plant response rating (0 to 100 scale) [1, 32]: 100
Foxtail, Green plant response rating (0 to 100 scale) [2, 31]: 30
Foxtail, Green plant response rating (0 to 100 scale) [2, 32]: 100
Ragweed plant response rating (0 to 100 scale) [3, 31]: 40
Ragweed plant response rating (0 to 100 scale) [3, 32]: 60
Blackgrass plant response rating (0 to 100 scale) [4, 31]: 10
Blackgrass plant response rating (0 to 100 scale) [4, 32]: 90
Wheat plant response rating (0 to 100 scale) [5, 31]: 20
Wheat plant response rating (0 to 100 scale) [5, 32]: 80
Soybean plant response rating (0 to 100 scale) (soybean (Glycine max) [6]; [31]): 10
Soybean plant response rating (0 to 100 scale) (soybean (Glycine max) [6]; [32]): 0
Kochia plant response rating (0 to 100 scale) (kochia (Bassia scoparia) [7]; [31]): 90
Kochia plant response rating (0 to 100 scale) (kochia (Bassia scoparia) [7]; [32]): 100
Corn plant response rating (0 to 100 scale) (corn (Zea mays) [8]; [31]): 30
Corn plant response rating (0 to 100 scale) (corn (Zea mays) [8]; [32]): 70
Ryegrass, Italian plant response rating (0 to 100 scale) [9, 31]: 70
Ryegrass, Italian plant response rating (0 to 100 scale) [9, 32]: 90
Oat, Wild plant response rating (0 to 100 scale) [10, 31]: 90
Oat, Wild plant response rating (0 to 100 scale) [10, 32]: 90
Amaranth, Palmer plant response rating (0 to 100 scale) [11, 31]: 80
Amaranth, Palmer plant response rating (0 to 100 scale) [11, 32]: 100
Barnyardgrass plant response rating (0 to 100 scale) [12, 33]: 0
Barnyardgrass plant response rating (0 to 100 scale) [12, 34]: 80
Foxtail, Green plant response rating (0 to 100 scale) [13, 33]: 20
Foxtail, Green plant response rating (0 to 100 scale) [13, 34]: 90
Ragweed plant response rating (0 to 100 scale) [14, 33]: 40
Ragweed plant response rating (0 to 100 scale) [14, 34]: 50
Blackgrass plant response rating (0 to 100 scale) [15, 33]: 20
Blackgrass plant response rating (0 to 100 scale) [15, 34]: 70
Galium plant response rating (0 to 100 scale) [16, 33]: 80
Galium plant response rating (0 to 100 scale) [16, 34]: 80
Wheat plant response rating (0 to 100 scale) [17, 33]: 10
Wheat plant response rating (0 to 100 scale) [17, 34]: 10
Soybean plant response rating (0 to 100 scale) (soybean (Glycine max) [18]; [33]): 30
Soybean plant response rating (0 to 100 scale) (soybean (Glycine max) [18]; [34]): 50
Kochia plant response rating (0 to 100 scale) (kochia (Bassia scoparia) [19]; [33]): 70
Kochia plant response rating (0 to 100 scale) (kochia (Bassia scoparia) [19]; [34]): 80
Horseweed plant response rating (0 to 100 scale) [20, 33]: 50
Horseweed plant response rating (0 to 100 scale) [20, 34]: 40
Corn plant response rating (0 to 100 scale) (corn (Zea mays) [21]; [33]): 80
Corn plant response rating (0 to 100 scale) (corn (Zea mays) [21]; [34]): 90
Ryegrass, Italian plant response rating (0 to 100 scale) [22, 33]: 30
Ryegrass, Italian plant response rating (0 to 100 scale) [22, 34]: 70
Oat, Wild plant response rating (0 to 100 scale) [23, 33]: 20
Oat, Wild plant response rating (0 to 100 scale) [23, 34]: 20
Amaranth, Palmer / Pigweed, Palmer plant response rating (0 to 100 scale) ([24]; Postemergence, 125 g ai/ha, 10 days): 80
Amaranth, Palmer / Pigweed, Palmer plant response rating (0 to 100 scale) ([24]; Postemergence, 500 g ai/ha, 10 days): 100
Plant response rating, Sedge, Umbrella (0 to 100 scale, 0 is no effect and 100 is complete control) [25]: 0
Plant response rating, Barnyardgrass (0 to 100 scale, 0 is no effect and 100 is complete control) [26]: 0
Plant response rating, Ducksalad (0 to 100 scale, 0 is no effect and 100 is complete control) [27]: 30
Plant response rating, Rice (0 to 100 scale, 0 is no effect and 100 is complete control) (rice (Oryza sativa)): 0
